Laboratory results: US20240368127A1, “HSD17B13 INHIBITORS AND USES THEREOF” (FL2022-001, Inc., priority 2021, published 2024)

These molecules were tested against T1, Recombinant human HSD17B13 enzyme (Homo sapiens, UniProt Q7Z5P4) (assay: HSD17b13 NAD(P)H-Glo biochemical assay). Conditions: 50 μM estradiol, 1 mM NAD+, 37° C. for 3 hours; read-out: HSD17β13 IC50.
T1 sequence (Q7Z5P4 20-300): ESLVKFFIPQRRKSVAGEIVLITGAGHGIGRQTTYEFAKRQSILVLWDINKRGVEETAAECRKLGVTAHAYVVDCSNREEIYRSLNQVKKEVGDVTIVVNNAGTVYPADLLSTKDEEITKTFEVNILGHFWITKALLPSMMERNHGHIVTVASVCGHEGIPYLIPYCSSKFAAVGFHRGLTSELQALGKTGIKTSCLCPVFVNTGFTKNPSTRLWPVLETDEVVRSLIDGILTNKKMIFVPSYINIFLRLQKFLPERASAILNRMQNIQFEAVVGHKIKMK
How it was run: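 Enzyme preincubated with inhibitor 20 min at RT in 20 mM Tris pH7.4, 0.002% Tween-20, 0.02% BSA, then reacted 3 h at 37° C with 50 μM estradiol and 1 mM NAD+ (final). NADH formation read by NAD(P)H-Glo luminescence after 1 h at RT.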

| IC50 [nM] | Structure (SMILES) |
| --- | --- |
| ≤ 100 | Cn1nc(-c2cc(C(F)(F)F)c(F)c(O)c2F)c2cnc(N3CCC[C@@H]3Cc3ccccc3)nc21 [Compound 5.30, (R)-3-(6-(2-Benzylpyrrolidin-1-yl)-1-methyl-1H-pyrazolo[3,4-d]pyrimidin-3-yl)-2,6-difluoro-5-(trifluoromethyl)phenol] |
| ≤ 100 | Cn1nc(-c2cc(C(F)(F)F)c(F)c(O)c2F)c2cnc(N3CCNC[C@H]3Cc3ccccc3)nc21 [Compound 5.31, (R)-3-(6-(2-Benzylpiperazin-1-yl)-1-methyl-1H-pyrazolo[3,4-d]pyrimidin-3-yl)-2,6-difluoro-5-(trifluoromethyl)phenol] |
| ≤ 100 | Cn1nc(-c2cc(C(F)(F)F)c(F)c(O)c2F)c2cnc(N3CCCCC3Cc3ccccc3)nc21 (centres unmarked) [Compound 5.32, 3-(6-(2-Benzylpiperidin-1-yl)-1-methyl-1H-pyrazolo[3,4-d]pyrimidin-3-yl)-2,6-difluoro-5-(trifluoromethyl)phenol] |
| ≤ 100 | Cn1nc(-c2cc(C(F)(F)F)c(F)c(O)c2F)c2cnc(N3CCN(S(C)(=O)=O)C(CC4CC4)C3)nc21 (centres unmarked) [Compound 5.33, 3-(6-(3-(Cyclopropylmethyl)-4-(methylsulfonyl)piperazin-1-yl)-1-methyl-1H-pyrazolo[3,4-d]pyrimidin-3-yl)-2,6-difluoro-5-(trifluoromethyl)phenol] |
| 100 to 1000 | Cn1nc(-c2cc(C(F)(F)F)c(F)c(O)c2F)c2cnc(N3CCCCC3Cn3cncn3)nc21 (centres unmarked) [Compound 5.34, 3-(6-(2-((1H-1,2,4-Triazol-1-yl)methyl)piperidin-1-yl)-1-methyl-1H-pyrazolo[3,4-d]pyrimidin-3-yl)-2,6-difluoro-5-(trifluoromethyl)phenol] |
| ≤ 100 | CC(C)CC1COCCN1c1ncc2c(-c3cc(C(F)(F)F)c(F)c(O)c3F)nn(C)c2n1 (centres unmarked) [Compound 5.35, 2,6-Difluoro-3-(6-(3-isobutylmorpholino)-1-methyl-1H-pyrazolo[3,4-d]pyrimidin-3-yl)-5-(trifluoromethyl)phenol] |
| ≤ 100 | CN(c1ncc2c(-c3cc(C(F)(F)F)c(F)c(O)c3F)nn(C)c2n1)C1CCCN(Cc2ccccc2)C1 (centres unmarked) [Compound 5.36, 3-(6-((1-Benzylpiperidin-3-yl)(methyl)amino)-1-methyl-1H-pyrazolo[3,4-d]pyrimidin-3-yl)-2,6-difluoro-5-(trifluoromethyl)phenol] |
| ≤ 100 | Cn1nc(-c2cc(C(F)(F)F)c(F)c(O)c2F)c2cnc(N3CCN(S(C)(=O)=O)C(CC4CCC4)C3)nc21 (centres unmarked) [Compound 5.37, 3-(6-(3-(Cyclobutylmethyl)-4-(methylsulfonyl)piperazin-1-yl)-1-methyl-1H-pyrazolo[3,4-d]pyrimidin-3-yl)-2,6-difluoro-5-(trifluoromethyl)phenol] |
| ≤ 100 | COC(=O)N1CCN(c2ncc3c(-c4cc(C(F)(F)F)c(F)c(O)c4F)nn(C)c3n2)[C@H](Cc2ccccc2)C1 [Compound 6, Methyl (R)-3-benzyl-4-(3-(2,4-difluoro-3-hydroxy-5-(trifluoromethyl)phenyl)-1-methyl-1H-pyrazolo[3,4-d]pyrimidin-6-yl)piperazine-1-carboxylate] |
| ≤ 100 | CN(C)C(=O)N1CCN(c2ncc3c(-c4cc(C(F)(F)F)c(F)c(O)c4F)nn(C)c3n2)[C@H](Cc2ccccc2)C1 [Compound 6.01, (R)-3-Benzyl-4-(3-(2,4-difluoro-3-hydroxy-5-(trifluoromethyl)phenyl)-1-methyl-1H-pyrazolo[3,4-d]pyrimidin-6-yl)-N,N-dimethylpiperazine-1-carboxamide] |
| ≤ 100 | CC(=O)N1CCN(c2ncc3c(-c4cc(C(F)(F)F)c(F)c(O)c4F)nn(C)c3n2)[C@H](Cc2ccccc2)C1 [Compound 6.02, (R)-1-(3-Benzyl-4-(3-(2,4-difluoro-3-hydroxy-5-(trifluoromethyl)phenyl)-1-methyl-1H-pyrazolo[3,4-d]pyrimidin-6-yl)piperazin-1-yl)ethan-1-one] |
| ≤ 100 | COCC(=O)N1CCN(c2ncc3c(-c4cc(C(F)(F)F)c(F)c(O)c4F)nn(C)c3n2)[C@H](Cc2ccccc2)C1 [Compound 6.03, (R)-1-(3-Benzyl-4-(3-(2,4-difluoro-3-hydroxy-5-(trifluoromethyl)phenyl)-1-methyl-1H-pyrazolo[3,4-d]pyrimidin-6-yl)piperazin-1-yl)-2-methoxyethan-1-one] |
| ≤ 100 | CC(=O)N1CCN(c2ncc3c(-c4cc(C(F)(F)F)c(F)c(O)c4F)nn(C)c3n2)C[C@@H]1Cc1ccccc1 [Compound 6.04, (S)-1-(2-Benzyl-4-(3-(2,4-difluoro-3-hydroxy-5-(trifluoromethyl)phenyl)-1-methyl-1H-pyrazolo[3,4-d]pyrimidin-6-yl)piperazin-1-yl)ethan-1-one] |
| ≤ 100 | CC(=O)N1CCN(c2ncc3c(-c4cc(C(F)(F)F)c(F)c(O)c4F)nn(C)c3n2)C[C@H]1Cc1ccccc1 [Compound 6.05, (R)-1-(2-Benzyl-4-(3-(2,4-difluoro-3-hydroxy-5-(trifluoromethyl)phenyl)-1-methyl-1H-pyrazolo[3,4-d]pyrimidin-6-yl)piperazin-1-yl)ethan-1-one] |
| ≤ 100 | CNC(=O)N1CCN(c2ncc3c(-c4cc(C(F)(F)F)c(F)c(O)c4F)nn(C)c3n2)C[C@@H]1Cc1ccccc1 [Compound 6.06, (S)-2-Benzyl-4-(3-(2,4-difluoro-3-hydroxy-5-(trifluoromethyl)phenyl)-1-methyl-1H-pyrazolo[3,4-d]pyrimidin-6-yl)-N-methylpiperazine-1-carboxamide] |
| 100 to 1000 | CN(C)C(=O)N1CCN(c2ncc3c(-c4cc(C(F)(F)F)c(F)c(O)c4F)nn(C)c3n2)C[C@@H]1Cc1ccccc1 [Compound 6.07, (S)-2-Benzyl-4-(3-(2,4-difluoro-3-hydroxy-5-(trifluoromethyl)phenyl)-1-methyl-1H-pyrazolo[3,4-d]pyrimidin-6-yl)-N,N-dimethylpiperazine-1-carboxamide] |
| ≤ 100 | COC(=O)N1CCN(c2ncc3c(-c4cc(C(F)(F)F)c(F)c(O)c4F)nn(C)c3n2)C[C@@H]1Cc1ccccc1 [Compound 6.08, Methyl (S)-2-benzyl-4-(3-(2,4-difluoro-3-hydroxy-5-(trifluoromethyl)phenyl)-1-methyl-1H-pyrazolo[3,4-d]pyrimidin-6-yl)piperazine-1-carboxylate] |
| ≤ 100 | CCC(=O)N1CCN(c2ncc3c(-c4cc(C(F)(F)F)c(F)c(O)c4F)nn(C)c3n2)[C@H](Cc2ccccc2)C1 [Compound 6.09, (R)-1-(3-Benzyl-4-(3-(2,4-difluoro-3-hydroxy-5-(trifluoromethyl)phenyl)-1-methyl-1H-pyrazolo[3,4-d]pyrimidin-6-yl)piperazin-1-yl)propan-1-one] |
| ≤ 100 | CN(c1ncc2c(-c3cc(C(F)(F)F)c(F)c(O)c3F)nn(C)c2n1)C1(Cc2ccccc2)CCOCC1 [Compound 11.07, 3-(6-((4-Benzyltetrahydro-2H-pyran-4-yl)(methyl)amino)-1-methyl-1H-pyrazolo[3,4-d]pyrimidin-3-yl)-2,6-difluoro-5-(trifluoromethyl)phenol] |
| ≤ 100 | Cc1cc(-c2nn(C)c3nc(N4CCN(S(C)(=O)=O)C[C@H]4Cc4ccccc4)ncc23)c(F)c(O)c1F [Compound 11.08, (R)-3-(6-(2-Benzyl-4-(methylsulfonyl)piperazin-1-yl)-1-methyl-1H-pyrazolo[3,4-d]pyrimidin-3-yl)-2,6-difluoro-5-methylphenol] |
| ≤ 100 | Cn1nc(-c2cc(F)c(F)c(O)c2F)c2cnc(N3CCN(S(C)(=O)=O)C[C@H]3Cc3ccccc3)nc21 [Compound 11.09, (R)-3-(6-(2-Benzyl-4-(methylsulfonyl)piperazin-1-yl)-1-methyl-1H-pyrazolo[3,4-d]pyrimidin-3-yl)-2,5,6-trifluorophenol] |
| ≤ 100 | Cn1nc(-c2cc(F)c(Cl)c(O)c2F)c2cnc(N3CCN(S(C)(=O)=O)C[C@H]3Cc3ccccc3)nc21 [Compound 11.10, (R)-3-(6-(2-Benzyl-4-(methylsulfonyl)piperazin-1-yl)-1-methyl-1H-pyrazolo[3,4-d]pyrimidin-3-yl)-6-chloro-2,5-difluorophenol] |
| 1000 to 30000 | Cn1nc(-c2cccc(O)c2)c2cnc(N3CCN(S(C)(=O)=O)C[C@H]3Cc3ccccc3)nc21 [Compound 11.11, (R)-3-(6-(2-Benzyl-4-(methylsulfonyl)piperazin-1-yl)-1-methyl-1H-pyrazolo[3,4-d]pyrimidin-3-yl)phenol] |
| ≤ 100 | Cn1nc(-c2cc(Cl)c(F)c(O)c2F)c2cnc(N3CCN(S(C)(=O)=O)C[C@H]3Cc3ccccc3)nc21 [Compound 11.12, (R)-3-(6-(2-Benzyl-4-(methylsulfonyl)piperazin-1-yl)-1-methyl-1H-pyrazolo[3,4-d]pyrimidin-3-yl)-5-chloro-2,6-difluorophenol] |
| ≤ 100 | Cn1nc(-c2cc(C(F)(F)F)c(F)c(O)c2F)c2cnc(N3CCN(S(C)(=O)=O)CC3CC3CC3)nc21 (centres unmarked) [Compound 11.13, 3-(6-(2-(Cyclopropylmethyl)-4-(methylsulfonyl)piperazin-1-yl)-1-methyl-1H-pyrazolo[3,4-d]pyrimidin-3-yl)-2,6-difluoro-5-(trifluoromethyl)phenol] |
| ≤ 100 | Cn1nc(-c2cc(C(F)(F)F)c(F)c(O)c2F)c2cnc(N3CCN(C(=O)C(F)(F)F)CC3CC3CC3)nc21 (centres unmarked) [Compound 11.14, 1-(3-(Cyclopropylmethyl)-4-(3-(2,4-difluoro-3-hydroxy-5-(trifluoromethyl)phenyl)-1-methyl-1H-pyrazolo[3,4-d]pyrimidin-6-yl)piperazin-1-yl)-2,2,2-trifluoroethan-1-one] |
